Data set [1] has as its system L1210 murine leukemia cell line. As to the kind of experiment: cell growth inhibition in a cytotoxic assay with L1210. Format: cell-based.
Data set [2] shares this test system. The settings on record: natural enantiomer; cited from earlier work.
For data set [3] the following is noted: human plasma.
The nature of data set [4]: chemical reactivity/stability under acidic, basic and nucleophilic conditions. Type of data set: physicochemical.
Data set [5] concerns DNA. As to the kind of experiment: DNA alkylation in cell-free systems. Type of data set: biochemical.
In data set [6] the test system is L1210 murine leukemia cells. As to the kind of experiment: in vivo antitumor model, L1210 cells implanted ip into mice.
Data set [7] has as its system L1210 murine leukemia cells. To be noted: previously established; cited from earlier work.

The values below come from publication PMC3386426 (Journal of Medicinal Chemistry, 2012).

Read-outs that look alike come from different tables or passages of the source.

Consider `Nc1cccc2c1C(=O)C=C1N(C(=O)c3cc4cc(NC(=O)c5cc6ccccc6[nH]5)ccc4[nH]3)CC3CC123` (racemic) [(±)-20, N-(2-(5-Amino-4-oxo-1,2,9,9a-tetrahydrocyclopropa[c]benzo[e]indole-2-carbonyl)-1H-indol-5-yl)-1H-indole-2-carboxamide], for which the “fold less active than 4 (active enantiomer of 20)” value in data set [1] (L1210, inferred for the active enantiomer from the racemate) is given as 3–4 fold.

As usually defined, the IC50 is the concentration that gives 50% inhibition. Regarding `CC(C)(C)OC(=O)N1C[C@H]2C[C@@]23C1=CC(=O)c1ccccc13` [N-Boc-CBI], the IC50 in data set [2] was 80 nM.

For `O=C1Nc2cccc3c4c(cc(c23)O1)N(C(=O)c1cc2cc(NC(=O)c3cc5ccccc5[nH]3)ccc2[nH]1)CC4CCl` (centres unmarked) [Compound 6, N-(2-(10-(Chloromethyl)-5-oxo-5,8,9,10-tetrahydro-4H-pyrrolo[3',2':5,6]naphtho[1,8-de][1,3]oxazine-8-carbonyl)-1H-indol-5-yl)-1H-indole-2-carboxamide], the free drug release in data set [3] was found to be 5%. In addition, the “stability under acidic conditions” value in data set [4] (1:1 TFA:CH2Cl2, 4 N HCl in EtOAc, up to 72 h at 23 °C) was “stable”. Moreover, the DNA alkylation entry in data set [5] is reported as “incapable of alkylating DNA”. Besides, the “times more potent than its N-Boc precursor 16” value in data set [1] (L1210, relative to 16) is reported as 100 to 1000 times.

Take `O=C(Nc1ccc2[nH]c(C(=O)N3C[C@H](CCl)c4c3cc(O)c3ccccc43)cc2c1)c1cc2ccccc2[nH]1` [Compound 4, seco-CBI-indole2]: in data set [6] (60 μg/kg ip on days 1, 5, 9), the “T/C (percent survival)” value worked out at 197 and the “long term (250 days) survivors” value was 1/10. Besides, the “toxicity (premature death of the animals)” value in data set [6] (doses of 100–500 μg/kg ip on days 1, 5, 9) was “toxic”. Also, the optimal dose range in data set [7] is 0.06 to 0.1 mg/kg. Further, the 50% inhibitory concentration (IC50) in data set [1] (Mus musculus, L1210, L1210 cell line) was 0.03 nM.

With `O=C1Nc2cccc3c4c(cc(c23)O1)N(C(=O)c1cc2cc(NC(=O)c3cc5ccccc5[nH]3)ccc2[nH]1)CC4CCl` (single isomer, unassigned; (+)) [(+)-6, N-(2-(10-(Chloromethyl)-5-oxo-5,8,9,10-tetrahydro-4H-pyrrolo[3',2':5,6]naphtho[1,8-de][1,3]oxazine-8-carbonyl)-1H-indol-5-yl)-1H-indole-2-carboxamide], the “long term cures (>250 days)” value in data set [6] (9000 μg/kg ip on days 1, 5, 9) is recorded as 5/10. Moreover, in data set [6] (300 to 9000 μg/kg ip on days 1, 5, 9 (30-fold range)), the “antitumor activity over dose range” value is “productive antitumor activity over the entire and much larger dose range examined”.

Turning to `CC(C)(C)OC(=O)N1C[C@@H](CCl)c2c1cc1c3c(cccc23)NC(=O)O1` [Compound 16, tert-Butyl 10-(Chloromethyl)-5-oxo-9,10-dihydro-4H-pyrrolo[3',2':5,6]naphtho[1,8-de][1,3]oxazine-8(5H)-carboxylate], in data set [4] (1:1 TFA:CH2Cl2, 4 N HCl in EtOAc, 48 h at 23 °C), the “stability of cyclic carbamate to hydrolysis under acidic conditions” value was “stable”. For the same molecule, in data set [4] (100 equiv in MeOH and THF at 23 °C for 48 h), the “stability to nucleophiles BnSH and BnOH” value is “completely stable”. Moreover, the “stability to BnNH2 in MeOH” value in data set [4] (BnNH2 (100 equiv) in MeOH, 24 h) is “rapidly cleaved”. Besides, the “stability to BnNH2 in THF” value in data set [4] (BnNH2 in THF) is “stable”. In addition, the “hydrolysis of cyclic carbamate with NaHCO3” value in data set [4] (NaHCO3 in protic solvents) is “slowly hydrolyzed”. Further, in data set [4] (organic bases in aprotic solvents), the “stability to organic bases” value was “stable”. For the same molecule, in data set [1] (L1210, relative to N-Boc-CBI), the “fold less active than N-Boc-CBI” value is reported as 50–100 fold.
